Each structure is given as a SMILES string. The source made the active and inactive calls. The rule behind the calls is not given here.

Experimental findings from ChEMBL document CHEMBL1140503, “Discovery of 1,1-dioxo-1,2,6-thiadiazine-5-carboxamide derivatives as cannabinoid-like molecules with agonist and antagonist activity” (Bioorg Med Chem, 2007) are described below.

Assay [1] concerns the target T1, Cannabinoid receptor 1 (Mus musculus, UniProt P47746). Put plainly: (§1) Agonist activity at CB1 receptor in ICR mouse vas deferens assessed as inhibition of electrically-stimulated contraction. The assay is classed as functional, tissue-based.
Assay [2] has as its target Cannabinoid receptor 1 (Mus musculus) (UniProt P47746). The assay is described as §1. The assay is classed as functional, tissue-based.
The subject of assay [3] is Mus musculus. Put plainly: Effect on cannabinoid behavioral sign in ICR mouse at 0.2 mg/kg, icv. The class given is functional, organism-based. Details: dose 0.2 mg/kg.
Assay [4] relates to Mus musculus. Put plainly: Increase in locomotory activity in ICR mouse at 20 mg/kg, ip. The class given is functional, organism-based. Details: dose 20 mg/kg.
The nature of assay [5]: Antagonism of WIN-55212-2 mediated antinociceptive activity in ICR mouse at 1 mg/kg ip dose. The conditions noted are these: filed as antagonist. Details: dose 1 mg/kg. The assay is classed as functional, organism-based.
Assay [6] has as its target T1, Cannabinoid receptor 1. As to the kind of experiment: Antagonist activity at CB1 receptor in ICR mouse vas deferens assessed as reversal of WIN-55212-2-induced effect on electrically-stimulated contraction. The class given is functional, tissue-based. The conditions noted are these: read-out: pA2 (converted).
Assay [7] relates to Mus musculus. As to the kind of experiment: Inhibition of spontaneous motility in ICR mouse at 1.5 mg/kg, ip. Details: dose 1.5 mg/kg. The class given is functional, organism-based.
Assay [8] relates to Mus musculus. As to the kind of experiment: Induction of hypothermic effect in ICR mouse at 1.5 mg/kg, ip. The class given is functional, organism-based. Details: dose 1.5 mg/kg.
For assay [9], the system named is Mus musculus. Put plainly: Prevention of spontaneous activity reduction in ICR mouse at 1 mg/kg, ip. The class given is functional, organism-based. Details: dose 1 mg/kg.
The subject of assay [10] is Mus musculus. Put plainly: Induction of catalepsy in ICR mouse at 1.5 mg/kg, ip by ring test. The assay is classed as functional, organism-based. Details: dose 1.5 mg/kg.
Assay [11] relates to Mus musculus. Put plainly: Antinociceptive activity in ICR mouse at 1.5 mg/kg, ip by hot plate test. The assay is classed as functional, organism-based. Details: dose 1.5 mg/kg.

Sequence of Cannabinoid receptor 1 (Mus musculus) (P47746 whole entry): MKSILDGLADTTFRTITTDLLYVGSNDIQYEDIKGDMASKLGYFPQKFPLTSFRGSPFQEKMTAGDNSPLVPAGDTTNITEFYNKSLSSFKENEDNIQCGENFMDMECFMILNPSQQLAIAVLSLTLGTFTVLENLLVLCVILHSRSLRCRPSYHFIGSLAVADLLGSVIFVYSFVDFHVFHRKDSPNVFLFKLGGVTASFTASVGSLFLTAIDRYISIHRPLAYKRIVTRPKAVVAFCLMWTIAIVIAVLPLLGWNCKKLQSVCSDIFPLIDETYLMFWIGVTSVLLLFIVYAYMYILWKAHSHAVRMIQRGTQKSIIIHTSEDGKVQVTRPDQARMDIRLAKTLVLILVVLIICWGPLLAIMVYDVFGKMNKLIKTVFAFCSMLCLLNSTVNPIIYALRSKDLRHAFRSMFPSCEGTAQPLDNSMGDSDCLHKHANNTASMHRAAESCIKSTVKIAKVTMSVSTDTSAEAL
T1 sequence (P47746 whole entry): as above

As for `Cc1cc(C2=CC(C(=O)NC3CCCCC3)=NS(=O)(=O)N2Cc2ccc(Cl)cc2Cl)ccc1Cl`, on Cannabinoid receptor 1 [1], the EC50 (in general, the midpoint of the concentration-response curve) was 36.9 µM. As to `O=C(NN1CCCCC1)C1=NS(=O)(=O)N(Cc2ccc(Cl)cc2Cl)C(c2ccc(Cl)cc2)=C1`, the Agonism entry in [2] is “inactive”.

In the case of `Cc1cc(C2=CC(C(=O)NN3CCCCC3)=NS(=O)(=O)N2Cc2ccccc2)ccc1Cl`, the Agonism result in assay [2] was “inactive”. On to `CC1=CC(C(=O)NC2CCCCC2)=NS(=O)(=O)N1c1ccccc1`, for which the Agonism result in [2] is “inactive”. Regarding `CCCCCCN1C(C)=CC(C(=O)NN2CCCCC2)=NS1(=O)=O`, the EC50 at Cannabinoid receptor 1 [1] is 36.9 µM. For `O=C(NN1CCCCC1)C1=NS(=O)(=O)N(Cc2ccccc2)C(c2ccc(Br)cc2)=C1`, the Agonism result in [2] is “inactive”. `CC12CCC(C1)C(C)(C)C2NC(=O)C1=NS(=O)(=O)N(Cc2ccccc2)C(c2ccc(Cl)cc2)=C1` (stereo not given): the outcome with Mus musculus [3] was inactive. The EC50 at Cannabinoid receptor 1 [1] was determined as 11.9 µM. In addition, in the assay with Mus musculus [4], the outcome was Active. As for `CC1=CC(C(=O)NN2CCCCC2)=NS(=O)(=O)N1c1ccc(Cl)cc1`, the Agonism entry in assay [2] is “inactive”. On to `Cc1c(C(=O)NN2CCCCC2)nn(-c2ccc(Cl)cc2Cl)c1-c1ccc(Cl)cc1`, for which the Antagonism result in [5] is “Antagonist”.

Consider `O=C(NN1CCOCC1)C1=NS(=O)(=O)N(Cc2ccccc2)C(c2ccc(Br)cc2)=C1`, for which the Agonism entry in [2] was “inactive”. For the molecule `CCCCCCN1C(c2ccc(Cl)cc2)=CC(C(=O)NN2CCCCC2)=NS1(=O)=O`, the EC50 at Cannabinoid receptor 1 [1] amounted to 8.44 µM. The Kb on Cannabinoid receptor 1 [6] was 0.209 µM.

For the molecule `O=C(Nc1ccccc1)C1=NS(=O)(=O)N(Cc2ccccc2)C(c2ccc(Cl)cc2)=C1`, the EC50 at Cannabinoid receptor 1 [1] was determined as 5.73 µM.

Consider `CC1=CC(C(=O)NN2CCOCC2)=NS(=O)(=O)N1Cc1ccccc1`, for which, in assay [2], the Agonism entry was “inactive”. With `O=C(NN1CCCCC1)C1=NS(=O)(=O)N(Cc2ccc(Cl)cc2Cl)C(c2ccc(Br)cc2)=C1`, the Agonism result in assay [2] is “inactive”. As for `Cc1c(C(=O)c2cccc3ccccc23)c2cccc3c2n1[C@H](CN1CCOCC1)CO3`, the result in the assay on Mus musculus [7], in the assay with Mus musculus [8], in the assay with Mus musculus [9], in the assay on Mus musculus [10] and in the assay with Mus musculus [11] was Active. Take `O=C(NN1CCCCC1)C1=NS(=O)(=O)N(Cc2ccccc2)C(c2ccc(Cl)cc2)=C1`: the EC50 at Cannabinoid receptor 1 [1] came out at 13.5 µM. For the same molecule, the Kb on Cannabinoid receptor 1 [6] was 0.12 µM. Besides, in [5], the Antagonism entry was “Antagonist”. In the case of `CC1=CC(C(=O)NN2CCCCC2)=NS(=O)(=O)N1C1CCCCC1`, in assay [2], the Agonism entry was “inactive”. Regarding `CC12CCC(C1)C(C)(C)C2NC(=O)C1=NS(=O)(=O)N(Cc2ccc(Cl)cc2Cl)C(c2ccc(Cl)cc2)=C1` (stereo not given), the Agonism entry in assay [2] is “inactive”.

As to `Cc1cc(C2=CC(C(=O)NC3C4(C)CCC(C4)C3(C)C)=NS(=O)(=O)N2Cc2ccccc2)ccc1Cl` (stereo not given), the Agonism entry in [2] is “inactive”. The same measure, in the same setting: in the case of `CC1=CC(C(=O)NN2CCCCC2)=NS(=O)(=O)N1Cc1ccccc1` it was “inactive”. `O=C(NN1CCCCC1)C1=NS(=O)(=O)N(C2CCCCC2)C(c2ccc(Br)cc2)=C1`: the concentration giving a half-maximal response (EC50) on Cannabinoid receptor 1 [1] turned out to be 38.4 µM.
